{"source": "patent US20230025807A1", "about": "(priority 2019, published 2023)", "target": "T1, Human CD38 (Homo sapiens, UniProt P28907)", "T1 construct": "purchased BPS Bioscience 79287", "T1 sequence (P28907 1-300)": "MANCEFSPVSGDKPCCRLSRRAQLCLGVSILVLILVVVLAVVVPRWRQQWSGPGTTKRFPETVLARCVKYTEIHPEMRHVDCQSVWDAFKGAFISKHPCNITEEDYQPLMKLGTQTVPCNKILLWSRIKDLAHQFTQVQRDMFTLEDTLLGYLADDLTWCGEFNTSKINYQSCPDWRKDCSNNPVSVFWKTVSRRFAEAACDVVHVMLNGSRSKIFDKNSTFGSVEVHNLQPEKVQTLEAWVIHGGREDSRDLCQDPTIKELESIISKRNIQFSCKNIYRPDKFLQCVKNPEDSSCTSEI", "assay": "biochemical", "protocol": "CD38 hydrolase buffer (4×) was thawed on ice and 1×CD38 hydrolase buffer was prepared by diluting 4×CD38 hydrolase buffer with water. CD38 hydrolase enzyme was diluted to […] with 1×CD38 hydrolase buffer (10 ng/well). Master mix was prepared by mixing equal volumes of water and CD38 hydrolase buffer (4×) and 10 μl of the mix was added to all the wells. Following master mix addition, 10 μl of the inhibitors and 20 μl of CD38 hydrolase enzyme were added to the wells. For wells designated blank, 10 μl and 20 μl of 1×CD38 hydrolase buffer was added respectively in place of CD38 enzyme and inhibitors. The plate was covered and incubated 30 min at room temperature with slow shaking at 400 rpm. After 30 min incubation, the plate was removed and 10 μl of diluted ε-NAD substrate was added to all the wells. The plate is incubated for 10 min, spun at 1200 rpm for 30 secs to remove bubbles and read in Tecan Spark using a fluorometer setting of excitation 300 nm and emission 410 nm. The reading for the blank was subtracted from all the values. IC50 for the test compounds were determined by using Graphpad prism software v7.0.", "key": {"[1]": {"details": "30 min pre-incubation at room temperature, ε-NAD substrate 10 min, excitation 300 nm / emission 410 nm, read-out: hCD38 IC50"}}, "note": "Like-named read-outs stand apart in the source and are kept apart here."}
{"smiles": "CC(NC(=O)c1cc(-c2cncs2)cc2[nH]ccc12)c1ccccc1F", "note": "(stereo not shown) [Example 39, N-(1-(2-fluorophenyl)ethyl)-6-(thiazol-5-yl)-1H-indole-4-carboxamide]", "values": [{"measurement": "IC50", "result": 0.197, "unit": "µM"}]}
{"smiles": "O=C(NC12CC3CC(CC(C3)C1)C2)c1cc(-c2cncs2)cc2[nH]ccc12", "note": "[Example 44, N-(adamantan-1-yl)-6-(thiazol-5-yl)-1H-indole-4-carboxamide]", "values": [{"measurement": "IC50", "result": 0.393, "unit": "µM"}]}
{"smiles": "O=C(N[C@H]1CC[C@H](O)CC1)c1cc(-c2cncs2)cc2[nH]ccc12", "note": "[Example 41, N-((1r,4r)-4-hydroxycyclohexyl)-6-(thiazol-5-yl)-1H-indole-4-carboxamide]", "values": [{"measurement": "IC50", "setting": "[1]", "result": 0.037, "unit": "µM"}]}
{"smiles": "CC1(O)CC(NC(=O)c2cc(-c3cncs3)cc3[nH]ccc23)C1", "note": "(stereo not shown) [Example 36, N-(3-hydroxy-3-methylcyclobutyl)-6-(thiazol-5-yl)-1H-indole-4-carboxamide]", "values": [{"measurement": "IC50", "result": 1.5, "unit": "µM"}]}
{"smiles": "COCCO[C@H]1CC[C@H](NC(=O)c2cc(-c3cncs3)cc3c2ccn3C(C)C)CC1", "note": "[Example 52, 1-isopropyl-N-((1r,4r)-4-(2-methoxyethoxy)cyclohexyl)-6-(thiazol-5-yl)-1H-indole-4-carboxamide]", "values": [{"measurement": "IC50", "result": 1.4, "unit": "µM"}]}
{"smiles": "O=C(N[C@H]1C[C@H](O)C1)c1cc(-c2cncs2)cc2[nH]ccc12", "note": "[Example 46, N-((1r,3r)-3-hydroxycyclobutyl)-6-(thiazol-5-yl)-1H-indole-4-carboxamide]", "values": [{"measurement": "IC50", "result": 0.678, "unit": "µM"}]}
{"smiles": "COCCO[C@H]1CC[C@H](NC(=O)c2cc(-c3cncs3)cc3c2ccn3CC(C)(C)O)CC1", "note": "[Example 53, 1-(2-hydroxy-2-methylpropyl)-N-((1r,4r)-4-(2-methoxyethoxy)cyclohexyl)-6-(thiazol-5-yl)-1H-indole-4-carboxamide]", "values": [{"measurement": "IC50", "result": 3, "unit": "µM"}]}
{"smiles": "O=C(NC1CCCCC1)c1cc(-c2cncs2)cc2[nH]ccc12", "note": "[Example 47, N-cyclohexyl-6-(thiazol-5-yl)-1H-indole-4-carboxamide]", "values": [{"measurement": "IC50", "result": 0.138, "unit": "µM"}]}
{"smiles": "CS(=O)(=O)CCNC(=O)c1cc(-c2cncs2)cc2[nH]ccc12", "note": "[Example 26, N-(2-(methylsulfonyl)ethyl)-6-(thiazol-5-yl)-1H-indole-4-carboxamide]", "values": [{"measurement": "IC50", "result": 1, "unit": "µM"}]}
{"smiles": "COCCO[C@H]1CC[C@H](NC(=O)c2cc(-n3ccnc3)cc3c(I)c[nH]c23)CC1", "note": "[Example 22, 5-(1H-imidazol-1-yl)-3-iodo-N-((1r,4r)-4-(2-methoxyethoxy)cyclohexyl)-1H-indole-7-carboxamide]", "values": [{"measurement": "IC50", "result": 0.169, "unit": "µM"}]}
{"smiles": "O=C(NC1CCOCC1)c1cc(-c2cncs2)cc2[nH]ccc12", "note": "[Example 45, N-(tetrahydro-2H-pyran-4-yl)-6-(thiazol-5-yl)-1H-indole-4-carboxamide]", "values": [{"measurement": "IC50", "result": 0.664, "unit": "µM"}]}
{"smiles": "O=C(N[C@@H]1CC[C@@H](O)C1)c1cc(-c2cncs2)cc2[nH]ccc12", "note": "[Example 31, N-((1R,3R)-3-hydroxycyclopentyl)-6-(thiazol-5-yl)-1H-indole-4-carboxamide]", "values": [{"measurement": "IC50", "result": 0.392, "unit": "µM"}]}
{"smiles": "O=C(NCC1CCOCC1)c1cc(-c2cncs2)cc2[nH]ccc12", "note": "[Example 27, N-((tetrahydro-2H-pyran-4-yl)methyl)-6-(thiazol-5-yl)-1H-indole-4-carboxamide]", "values": [{"measurement": "IC50", "result": 3.7, "unit": "µM"}]}
{"smiles": "COCCCO[C@H]1CC[C@H](NC(=O)c2cc(-c3cncs3)cc3[nH]ccc23)CC1", "note": "[Example 37, N-((1r,4r)-4-(3-methoxypropoxy)cyclohexyl)-6-(thiazol-5-yl)-1H-indole-4-carboxamide]", "values": [{"measurement": "IC50", "setting": "[1]", "result": 0.063, "unit": "µM"}]}
{"smiles": "C[C@H]1CCCC[C@H]1NC(=O)c1cc(-c2cncs2)cc2[nH]ccc12", "note": "[Example 40, N-((1R,2S)-2-methylcyclohexyl)-6-(thiazol-5-yl)-1H-indole-4-carboxamide]", "values": [{"measurement": "IC50", "result": 0.078, "unit": "µM"}]}
{"smiles": "COCCO[C@H]1CC[C@H](NC(=O)c2cc(-c3cncs3)cc3c(C#N)c[nH]c23)CC1", "note": "[Example 20, 3-cyano-N-((1r,4r)-4-(2-methoxyethoxy)cyclohexyl)-5-(thiazol-5-yl)-1H-indole-7-carboxamide]", "values": [{"measurement": "IC50", "result": 0.019, "unit": "µM"}]}
{"smiles": "O=C(NCc1ccc(N2CCOCC2)cc1)c1cc(-c2cncs2)cc2[nH]ccc12", "note": "[Example 33, N-(4-morpholinobenzyl)-6-(thiazol-5-yl)-1H-indole-4-carboxamide]", "values": [{"measurement": "IC50", "result": "> 10", "unit": "µM"}]}
{"smiles": "COCCO[C@H]1C[C@@H](NC(=O)c2cc(-c3cncs3)cc3[nH]ccc23)C1", "note": "[Example 32, N-((1s,3s)-3-(2-methoxyethoxy)cyclobutyl)-6-(thiazol-5-yl)-1H-indole-4-carboxamide]", "values": [{"measurement": "IC50", "result": 3.3, "unit": "µM"}]}
{"smiles": "COCCO[C@H]1CC[C@H](NC(=O)c2cc(-c3cncs3)cc3[nH]ccc23)C1", "note": "(racemic) [Example 34, N-(Trans-3-(2-methoxyethoxy)cyclopentyl)-6-(thiazol-5-yl)-1H-indole-4-carboxamide]", "values": [{"measurement": "IC50", "result": 0.265, "unit": "µM"}]}
{"smiles": "CC(C)(O)[C@H]1CC[C@H](NC(=O)c2cc(-c3cncs3)cc3[nH]ccc23)CC1", "note": "[Example 29, N-((1r,4r)-4-(2-hydroxypropan-2-yl)cyclohexyl)-6-(thiazol-5-yl)-1H-indole-4-carboxamide]", "values": [{"measurement": "IC50", "result": 0.123, "unit": "µM"}]}
{"smiles": "O=C(NC1CCS(=O)(=O)CC1)c1cc(-c2cncs2)cc2[nH]ccc12", "note": "[Example 24, N-(1,1-dioxidotetrahydro-2H-thiopyran-4-yl)-6-(thiazol-5-yl)-1H-indole-4-carboxamide]", "values": [{"measurement": "IC50", "result": 0.198, "unit": "µM"}]}
{"smiles": "COCCO[C@H]1CC[C@H](NC(=O)c2cc(-n3ccnc3)cc3c(C(=O)O)c[nH]c23)CC1", "note": "[Example 11, 5-(1H-imidazol-1-yl)-7-(((1r,4r)-4-(2-methoxyethoxy)cyclohexyl)carbamoyl)-1H-indole-3-carboxylic acid]", "values": [{"measurement": "IC50", "result": 0.58, "unit": "µM"}]}
